The target of test [1] is BTK protein in human whole blood (Homo sapiens (Human), UniProt Q06187). Briefly: Btk protein in human whole blood MSD ELISA based assay (BTK degradation). Type of test: cell-based. Particulars: 6 hours, maximum BTK degradation compared to DMSO only treated samples, read-out: hWB BTK dMax (%). Here is the method: Btk protein degradation was tested using an Meso Scale Discovery-ELISA system (MSD-ELISA): (1) Test compounds were added to human whole blood; (2) human whole blood cells treated with test compounds were lysed; (3) lysed cells were treated with capture antibody, an antibody to Btk; (4) lysed cells were treated with […] to Btk; and (5) lysed cells were treated with anti-mouse antibody (tagged).
Sequence of BTK protein in human whole blood (Q06187 whole entry): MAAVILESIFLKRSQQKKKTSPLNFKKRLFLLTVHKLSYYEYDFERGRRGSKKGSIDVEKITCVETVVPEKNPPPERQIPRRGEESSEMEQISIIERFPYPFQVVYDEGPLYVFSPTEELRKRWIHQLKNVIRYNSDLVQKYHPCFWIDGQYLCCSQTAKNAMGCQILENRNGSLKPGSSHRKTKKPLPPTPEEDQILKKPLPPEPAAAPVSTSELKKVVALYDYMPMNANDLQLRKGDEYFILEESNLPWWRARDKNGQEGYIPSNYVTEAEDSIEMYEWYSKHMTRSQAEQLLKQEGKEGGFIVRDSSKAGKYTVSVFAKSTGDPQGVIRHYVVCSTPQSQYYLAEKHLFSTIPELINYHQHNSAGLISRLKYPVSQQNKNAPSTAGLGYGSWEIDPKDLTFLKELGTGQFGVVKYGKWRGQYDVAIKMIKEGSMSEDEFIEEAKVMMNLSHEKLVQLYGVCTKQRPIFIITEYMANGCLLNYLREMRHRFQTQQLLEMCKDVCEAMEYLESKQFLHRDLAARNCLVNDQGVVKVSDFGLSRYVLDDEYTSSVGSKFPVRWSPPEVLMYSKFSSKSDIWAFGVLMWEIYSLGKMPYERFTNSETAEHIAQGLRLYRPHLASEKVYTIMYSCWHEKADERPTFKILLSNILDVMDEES
Specifically, about 80 μl of fresh human whole blood from healthy donors was transferred into each well of a 96-well V-bottom plate (Costar, Cat No. 3894). Using a TECAN™ D300e Digital Dispenser (Tecan)), 1:4 serially diluted compounds [(8 pt assay) in DMSO solution (final 0.2%) starting at 3 μM top concentration], were added in duplicate. Thereafter, plates were placed in a 37° C. incubator and incubated for 6 hours.
At the end of incubation, 80 μl of 2×CST lysis buffer (Cell Signaling Technology, Cat No. 9803), prepared from a 10× stock solution, was added per well to lyse the blood. Plates were then sealed with a plate sealer and the samples were frozen overnight at −80° C.
Total amount of BTK protein remaining in the blood samples after compound treatment was measured using MSD-ELISA. After thawing the frozen plates, blood lysates were mixed thoroughly and transferred to small spot high-bind MSD plates (Meso Scale Discovery, Cat No. L45XB-3) and coated with capturing antibody, rabbit anti-human BTK (D3H5) (Cell Signaling Technology, Cat No. 8547CF). Thereafter, primary detection antibody, mouse anti-human BTK monoclonal antibody, (BD Biosciences, Cat No. 611117) and secondary detection antibody, anti-mouse SULFO-TAG (Meso Scale Discovery, Cat No. R32AC-1) were added. The assay plates were read on an MSD S600 plate reader by the addition of 2×MSD read buffer (Meso Scale Discovery, R92TC-1). All reagent transfers, including blood lysis, was conducted using a Biomed i7 liquid handler. From the dose response curves, DC50 values were calculated by averaging data from duplicate experiments. and Curve fitting was done by non-linear regression using GraphPad Prism. The DC50 values are reported in Table 2 in the hWB BTK DC50 (nM) column The Dmax values represent the maximum amount of BTK degradation observed upon compound treatment compared to DMSO only treated samples. The dMax (%) values are reported in Table 2 in the hWB BTK dMax (%) column.
On the technique in general: An ELISA detects its analyte on a solid surface through an enzyme-linked reagent.

Another test concerns the target BTK in mouse bone marrow (Mus musculus (Mouse), UniProt P35991). Briefly: Mouse Bone Marrow Assay (MSD ELISA of BTK degradation in bone marrow). The following applies: female C57BL/6J mice, single dose of Dose A, bone marrow collected after 24 hours. In kind it is in vivo. Here is the method:
Female C57BL/6J mice (Jackson Laboratories) were used for this study. Compounds or vehicle/control were prepped with EtOH; PEG-400; Phosal 53 MCT (10:30:60, v/v). Four mice were tested per compound or vehicle/control. On Day 1, mice were administered a single dose of Dose A. On Day 2 (after 24 hours), tissue (bone marrow) was collected from one hind leg per mouse.
An MSD (Meso Scale Discovery) ELISA (enzyme-linked immunosorbent assay) based assay was used to determine BTK degradation in mouse bone marrow. The following materials and equipment were used: 10% NP40 solution (nonionic polyoxyethylene surfactant, ThermoFisher, cat no. 28324); protease inhibitor mini tablet (Roche, cat no. 05 892 970 001); PhosphoSTOP™ tablet (Roche, cat no. 04 906 837 001); Pierce™ BCA Protein Assay Kit (Thermofisher, Cat No. 23225); Precellys® 2 mL lysing tube with 2.8 mm beads (VWR, cat no. 10032-756); Bertin Precellys® 24/Cryolys® cooling system; 96-well MSD streptavidin pre-coated plates (MSD, cat no. L15SA-1); MSD Blocker A (MSD, cat no. R93BA-4); capture antibody, biotinylated BTK mAb (BD Biosciences, cat no. 624008; custom order); primary detection antibody, BTK RpAb (rabbit polyclonal antibody, CST, cat no. 8547S, D3H5 clone); secondary detection antibody, anti-Rabbit-Sulfo-Tag (MSD, cat no. R32AB-1); read Buffer, 4× (MSD, cat no. R92TC-1); recombinant BTK protein (Thermofisher, cat no. PR5442A); MSD Tris Wash Buffer (10×) (MSD, cat no. R61TX-1); PBS (phosphate-buffered saline); deionized water (diH2O); Lysis Buffer [0.2% NP40 in PBS+Protease Inhibitor tablet (1 tablet/10 mL)+PhosphoSTOP tablet (1 tablet/10 mL)]; 3% MSD Blocker A [MSD Blocker A+450 mL diH2O+50 mL]; and 10×MSD Tris Wash Buffer.
Lysis buffer [(PBS+0.2% NP40+PI (protease inhibitor)+PhosphoSTOP)] was prepared and put on ice until it was fully cold. Ice cold lysis buffer […] was added to each Precellys® tube containing beads and bone marrow sample. Sample tubes were transferred into Precellys® machine and homogenized using 5000 rpm—2×20 seconds. The sample lysates were centrifuged at 14,000 rpm for 20 minutes at 4° C. after homogenizing.
The protein concentration was determined using Pierce™ BCA Protein Assay Kit following manufacturer's recommended protocol. The protein normalized working solution was prepared, using 30 μg protein per sample lysate for assay.
A 300 ng/ml working stock solution of recombinant BTK protein in lysis buffer was prepared, and the sample was serially diluted at 3-fold dilution (10-point assay, highest concentration was 300 ng/mL and lowest concentration was 0.015 ng/mL)
MSD plate coating: Coating antibody (biotinylated-BTK mAb) stock solution was prepared at 1 μg/mL in PBS buffer. 50 μL/well capture antibody (Biotinylated BTK mAb) solution was added, and the plates were shaken gently at ambient temperature for two hours. The plates were washed 3 times with 1×MSD Tris Wash Buffer in a plate washer (300 μL/well), and the plates were blocked with 3% MSD Blocker A (150 μL/well). The plates were incubated for an additional 1-2 hours at ambient temperature with gentle shaking. The plates were washed 3 times with 1×MSD wash buffer using plate washer. Bone marrow lysates (30 μg) at a final volume of 50 μL/well were added into the plates. The serially diluted standard samples were added to the same plates at a final volume of 50 μL/well. The plates were incubated overnight at 4° C. with gentle shaking.
The plates were washed three times with 1×MSD wash buffer (prepared from 10× concentration buffer) using plate washer. Primary detection antibody at 50 μL/well was added (BTK RpAb; 1:1000 dilution in 1% MSD Blocker A). The plates were incubated for two hours at ambient temperature with gentle shaking. The plates were washed three times with 1×MSD wash buffer using plate washer. Anti-Rabbit-SULFO-TAG secondary antibodies (50 μl/well) were added, 1:500 diluted in 1% MSD Blocker A, and the plates were incubated for one to two hours at ambient temperature. […]

Molecules are shown by their SMILES.

Sequence of BTK in mouse bone marrow (P35991 whole entry): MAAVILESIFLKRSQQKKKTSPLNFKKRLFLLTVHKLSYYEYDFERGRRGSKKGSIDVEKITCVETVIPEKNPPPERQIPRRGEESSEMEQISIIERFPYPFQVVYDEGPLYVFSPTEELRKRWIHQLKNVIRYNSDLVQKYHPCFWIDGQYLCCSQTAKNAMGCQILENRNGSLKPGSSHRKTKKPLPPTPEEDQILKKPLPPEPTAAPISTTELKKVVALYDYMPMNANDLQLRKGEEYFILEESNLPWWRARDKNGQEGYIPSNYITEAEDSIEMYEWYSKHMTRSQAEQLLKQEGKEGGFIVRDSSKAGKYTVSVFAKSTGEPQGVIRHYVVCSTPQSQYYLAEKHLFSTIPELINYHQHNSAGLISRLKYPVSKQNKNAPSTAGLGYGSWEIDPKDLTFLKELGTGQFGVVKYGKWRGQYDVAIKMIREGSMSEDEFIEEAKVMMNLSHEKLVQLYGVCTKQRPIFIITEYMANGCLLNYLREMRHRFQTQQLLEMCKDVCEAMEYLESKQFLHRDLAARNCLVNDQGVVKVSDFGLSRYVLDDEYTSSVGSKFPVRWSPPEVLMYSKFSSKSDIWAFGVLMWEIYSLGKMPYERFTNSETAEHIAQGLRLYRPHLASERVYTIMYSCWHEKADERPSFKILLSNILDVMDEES

For the compound `Cc1cc(-c2cc(Nc3ccc(N4CCN(CCc5ccc(N6CCC(=O)NC6=O)cc5)C[C@H]4C)cn3)ncn2)ccc1[C@@H](C)NC(=O)c1nc(C(C)(C)C)no1` [Example 2, 3-tert-butyl-N-[(1R)-1-{4-[6-({5-[(2R)-4-{2-[4-(2,4-dioxo-1,3-diazinan-1-yl)phenyl]ethyl}-2-methylpiperazin-1-yl]pyridin-2-yl}amino)pyrimidin-4-yl]-2-methylphenyl}ethyl]-1,2,4-oxadiazole-5-carboxamide], the Dmax (usually the greatest extent of degradation seen) in test [1] stood at 98.8%. Further, the “Mouse Bone Marrow (%) (% remaining BTK, vehicle versus treated)” value at BTK in mouse bone marrow came out at 12%.

On to `Cc1cc(-c2cc(Nc3ccc(N4CCN(CCc5ccc(N6CCC(=O)NC6=O)cc5)CC4)cn3)ncn2)ccc1[C@@H](C)NC(=O)c1nc(C(C)(C)C)no1` [Example 3, 3-tert-butyl-N-{(1R)-1-[4-(6-{[5-(4-{2-[4-(2,4-dioxo-1,3-diazinan-1-yl)phenyl]ethyl}piperazin-1-yl)pyridin-2-yl]amino}pyrimidin-4-yl)-2-methylphenyl]ethyl}-1,2,4-oxadiazole-5-carboxamide], for which the Dmax in test [1] worked out at 99.2%. The “Mouse Bone Marrow (%) (% remaining BTK, vehicle versus treated)” value at BTK in mouse bone marrow is recorded as 22%.

As for `Cc1cc(-c2cc(Nc3ccc(N4CCN(CCc5ccc(N6CCC(=O)NC6=O)c(F)c5)C[C@@H]4C)cn3)ncn2)ccc1[C@@H](C)NC(=O)c1nc(C(C)(C)C)no1` [Example 4, 3-tert-butyl-N-[(1R)-1-{4-[6-({5-[(2S)-4-{2-[4-(2,4-dioxo-1,3-diazinan-1-yl)-3-fluorophenyl]ethyl}-2-methylpiperazin-1-yl]pyridin-2-yl}amino)pyrimidin-4-yl]-2-methylphenyl}ethyl]-1,2,4-oxadiazole-5-carboxamide], the Dmax in test [1] amounted to 99.8%. Moreover, the “Mouse Bone Marrow (%) (% remaining BTK, vehicle versus treated)” value on BTK in mouse bone marrow was found to be 13%.

Turning to `Cc1cc(-c2cc(Nc3ccc(N4CCN(CCc5ccc(N6CCC(=O)NC6=O)c(F)c5)C[C@H]4C)cn3)ncn2)ccc1[C@@H](C)NC(=O)c1nc(C(C)(C)C)no1` [Example 5, 3-tert-butyl-N-[(1R)-1-{4-[6-({5-[(2R)-4-{2-[4-(2,4-dioxo-1,3-diazinan-1-yl)-3-fluorophenyl]ethyl}-2-methylpiperazin-1-yl]pyridin-2-yl}amino)pyrimidin-4-yl]-2-methylphenyl}ethyl]-1,2,4-oxadiazole-5-carboxamide], the Dmax in test [1] stood at 99.3%. The “Mouse Bone Marrow (%) (% remaining BTK, vehicle versus treated)” value on BTK in mouse bone marrow is reported as 12%.

For `CC[C@H]1CN(CCc2ccc(N3CCC(=O)NC3=O)cc2)CCN1c1ccc(Nc2cc(-c3ccc([C@@H](C)NC(=O)c4nc(C(C)(C)C)no4)c(C)c3)ncn2)nc1` [Example 6, 3-tert-butyl-N-[(1R)-1-{4-[6-({5-[(2S)-4-{2-[4-(2,4-dioxo-1,3-diazinan-1-yl)phenyl]ethyl}-2-ethylpiperazin-1-yl]pyridin-2-yl}amino)pyrimidin-4-yl]-2-methylphenyl}ethyl]-1,2,4-oxadiazole-5-carboxamide], the Dmax in test [1] turned out to be 99.8%. Also, the “Mouse Bone Marrow (%) (% remaining BTK, vehicle versus treated)” value on BTK in mouse bone marrow turned out to be 19%.

As for `CC[C@H]1CN(CCc2ccc(N3CCC(=O)NC3=O)c(F)c2)CCN1c1ccc(Nc2cc(-c3ccc([C@@H](C)NC(=O)c4nc(C(C)(C)C)no4)c(C)c3)ncn2)nc1` [Example 7, 3-tert-butyl-N-[(1R)-1-{4-[6-({5-[(2S)-4-{2-[4-(2,4-dioxo-1,3-diazinan-1-yl)-3-fluorophenyl]ethyl}-2-ethylpiperazin-1-yl]pyridin-2-yl}amino)pyrimidin-4-yl]-2-methylphenyl}ethyl]-1,2,4-oxadiazole-5-carboxamide], the Dmax in test [1] turned out to be 99.3%. In addition, at BTK in mouse bone marrow, the “Mouse Bone Marrow (%) (% remaining BTK, vehicle versus treated)” value was 22%.

In the case of `COC[C@H]1CN(CCc2ccc(N3CCC(=O)NC3=O)cc2)CCN1c1ccc(Nc2cc(-c3ccc([C@@H](C)NC(=O)c4nc(C(C)(C)C)no4)c(C)c3)ncn2)nc1` [Example 15, 3-tert-butyl-N-[(1R)-1-{4-[6-({5-[(2R)-4-{2-[4-(2,4-dioxo-1,3-diazinan-1-yl)phenyl]ethyl}-2-(methoxymethyl)piperazin-1-yl]pyridin-2-yl}amino)pyrimidin-4-yl]-2-methylphenyl}ethyl]-1,2,4-oxadiazole-5-carboxamide], the Dmax in test [1] turned out to be 99.9%.

For the compound `C[C@@H](NC(=O)c1nc(C(C)(C)C)no1)c1ccc(-c2cc(Nc3ccc(N4CCN(CCc5ccc(N6CCC(=O)NC6=O)cc5)C[C@@H]4C)cn3)ncn2)cc1C(F)(F)F` [Example 16, 3-tert-butyl-N-[(1R)-1-{4-[6-({5-[(2S)-4-{2-[4-(2,4-dioxo-1,3-diazinan-1-yl)phenyl]ethyl}-2-methylpiperazin-1-yl]pyridin-2-yl}amino)pyrimidin-4-yl]-2-(trifluoromethyl)phenyl}ethyl]-1,2,4-oxadiazole-5-carboxamide], the greatest degradation seen (Dmax) in test [1] amounted to 100%.

With `C[C@@H](NC(=O)c1nc(C(C)(C)C)no1)c1ccc(-c2cc(Nc3ccc(N4CCN(CCc5ccc(N6CCC(=O)NC6=O)cc5)C[C@@H]4C)cn3)ncn2)cc1F` [Example 17, 3-tert-butyl-N-[(1R)-1-{4-[6-({5-[(2S)-4-{2-[4-(2,4-dioxo-1,3-diazinan-1-yl)phenyl]ethyl}-2-methylpiperazin-1-yl]pyridin-2-yl}amino)pyrimidin-4-yl]-2-fluorophenyl}ethyl]-1,2,4-oxadiazole-5-carboxamide], the Dmax in test [1] is 99.6%.

The values above are taken from patent publication US12172992B2, “Pyrimidines for degrading Bruton's tyrosine kinase” (AbbVie Inc., priority 2022, dated 2024).
